# Results from ChEMBL document CHEMBL1159255, “Cardenolides from Nierembergia aristata” (1995).
# Experiments:
# ZR-75-1 = assay: Cytotoxicity against human ZR-75-1 cells; type: functional; settings: read-out: ED50 (the source's name)
# [1] = Cytotoxicity against human U373 cells; type: functional, U-373MG ATCC; settings: U373 MG, read-out: ED50 (the source's name)
# SK-MEL-2 = assay: Cytotoxicity against human SK-MEL-2 cells; type: functional; settings: read-out: ED50 (the source's name)
# [2] = Cytotoxicity against human KBVIN cells in presence of vinblastine; type: functional; settings: read-out: ED50 (the source's name)
# [3] = Cytotoxicity against human KBVIN cells in absence of vinblastine; type: functional; settings: read-out: ED50 (the source's name)
# A-431 = assay: Cytotoxicity against human A431 cells; type: functional; settings: read-out: ED50 (the source's name)
# Col2 = assay: Cytotoxicity against human Col2 cells; type: functional; settings: read-out: ED50 (the source's name)
# [4] = Cytotoxicity against human BC1 cells; type: functional; settings: read-out: ED50 (the source's name)
# Lu1 = assay: Cytotoxicity against human Lu1 cells; type: functional; settings: read-out: ED50 (the source's name)
# LNCaP = assay: Cytotoxicity against human LNCAP cells; type: functional; settings: read-out: ED50 (the source's name)
# KB = assay: Cytotoxicity against human KB cells; type: functional; settings: read-out: ED50 (the source's name)
# HT = assay: Cytotoxicity against human HT cells; type: functional; settings: read-out: ED50 (the source's name)
Structure (SMILES),EC50 (ZR-75-1),EC50 [1],EC50 (SK-MEL-2),EC50 [2],EC50 [3],EC50 (A-431),EC50 (Col2),EC50 [4],EC50 (Lu1),EC50 (LNCaP),EC50 (KB),EC50 (HT)
C[C@H]1O[C@@H](O[C@H]2CC[C@]3(C=O)[C@H]4[C@H](O)C[C@]5(C)[C@H](C6=CC(=O)OC6)CC[C@]5(O)[C@@H]4C=C[C@]3(O)C2)C[C@H](O)[C@H]1O,0.4 µg/mL,0.4 µg/mL,4.1 µg/mL,0.6 µg/mL,1.6 µg/mL,0.5 µg/mL,0.5 µg/mL,0.3 µg/mL,0.09 µg/mL,0.3 µg/mL,0.3 µg/mL,2.3 µg/mL
CO[C@@H]1C[C@H](O[C@H]2CC[C@]3(C=O)[C@H]4CC[C@]5(C)[C@@H](C6=CC(=O)OC6)CC[C@]5(O)[C@@H]4C=C[C@]3(O)C2)O[C@H](C)[C@H]1O,0.2 µg/mL,0.8 µg/mL,0.8 µg/mL,0.3 µg/mL,0.5 µg/mL,0.7 µg/mL,0.9 µg/mL,0.3 µg/mL,0.1 µg/mL,0.5 µg/mL,0.3 µg/mL,0.4 µg/mL
C[C@H]1O[C@@H](O[C@H]2CC[C@]3(C=O)[C@H]4CC[C@]5(C)[C@@H](C6=CC(=O)OC6)CC[C@]5(O)[C@@H]4C=C[C@]3(O)C2)C[C@H](O)[C@H]1O,0.08 µg/mL,0.09 µg/mL,0.05 µg/mL,0.05 µg/mL,0.06 µg/mL,0.09 µg/mL,0.07 µg/mL,0.04 µg/mL,0.03 µg/mL,0.1 µg/mL,0.04 µg/mL,0.05 µg/mL
